Laboratory results: the supplement of paper PMC10331698
± gives the standard deviation of the averaged measurements.

What was measured:
Test in all cases: level (log10 ratio to DMSO vehicle control); higher = higher biomarker level / cell amount than vehicle control
[1] = compound: OCC(F)(F)C(F)(F)C(F)(F)C(F)F [1H,1H,5H-Perfluoropentanol] (in DMSO)
Method: (§1)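 BioMAP Diversity Plus panel of 12 human primary cell co-culture systems (3C, 4H, LPS, SAg, BT, BF4T, BE3C, CASM3C, HDF3CGF, KF3CT, MyoF, Mphg). Compounds were added 1 h before stimulation and left for 24 h (MyoF 48 h; BT 72 h for soluble read-outs or 6 d for IgG). Biomarkers were read by ELISA, cytotoxicity by SRB, PBMC viability and proliferation by Alamar Blue. Each well value was divided by the mean of 8 DMSO control wells on the same plate and log10 transformed; duplicate blinded samples were tested at 4 concentrations.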

Perfluoroundecanoic acid = compound: O=C(O)C(F)(F)C(F)(F)C(F)(F)C(F)(F)C(F)(F)C(F)(F)C(F)(F)C(F)(F)C(F)(F)C(F)(F)F [Perfluoroundecanoic acid] (in DMSO); details: 6700 nM
Method: as §1

[2] = compound: C[C@@H]1C[C@H]2[C@@H]3CCC4=CC(=O)C=C[C@]4(C)[C@@]3(F)[C@@H](O)C[C@]2(C)[C@@]1(O)C(=O)COP(=O)(O)O [Dexamethasone sodium phosphate] (in DMSO)
Method: as §1

[3] = compound: OCC(F)(F)OC(F)(F)C(F)(F)OC(F)(F)C(F)(F)OC(F)(F)CO [1H,1H,11H,11H-Perfluorotetraethylene glycol] (in DMSO)
Method: as §1

[4] = compound: O=C(O)CCC(F)(C(F)(F)F)C(F)(F)F [4,4-bis(Trifluoromethyl)-4-fluoropropanoic acid] (in DMSO)
Method: as §1

[5] = compound: O=C(O)C(F)(F)C(F)(F)C(F)(F)OC(F)(F)F [Perfluoro(4-methoxybutanoic) acid] (in DMSO)
Method: as §1

Perfluorononanoic acid = compound: O=C(O)C(F)(F)C(F)(F)C(F)(F)C(F)(F)C(F)(F)C(F)(F)C(F)(F)C(F)(F)F [Perfluorononanoic acid] (in DMSO)
Method: as §1

Test System | level (log10) ([1]; 6700 nM) | level (log10) ([1]; 20000 nM) | level (log10) ([1]; 60000 nM) | level (log10) (Perfluoroundecanoic acid) | level (log10) ([2]; 1500 nM) | level (log10) ([2]; 4400 nM) | level (log10) ([2]; 13000 nM) | level (log10) ([2]; 40000 nM) | level (log10) ([3]; 6700 nM) | level (log10) ([3]; 20000 nM) | level (log10) ([3]; 60000 nM) | level (log10) ([4]; 6700 nM) | level (log10) ([4]; 20000 nM) | level (log10) ([4]; 60000 nM) | level (log10) ([5]; 6700 nM) | level (log10) ([5]; 20000 nM) | level (log10) ([5]; 60000 nM) | level (log10) (Perfluorononanoic acid; 6700 nM) | level (log10) (Perfluorononanoic acid; 20000 nM)
SAg:CD40 | -0.055 ± 0.033 | -0.018 ± 0.031 | -0.0165 ± 0.073 | -0.013 ± 0.0028 | -0.044 ± 0.0085 | -0.072 ± 0.05 | -0.0535 ± 0.03 | -0.074 ± 0.081 | 0.011 ± 0.03 | -0.035 ± 0.044 | -0.132 ± 0.043 | -0.0495 ± 0.073 | -0.0245 ± 0.077 | -0.055 ± 0.089 | -0.029 ± 0.023 | -0.034 ± 0.045 | -0.034 ± 0.052 | -0.0285 ± 0.044 | -0.057 ± 0.02
SAg:CD62E/E-Selectin | -0.011 ± 0.018 | 0.008 ± 0.0071 | 0.0325 ± 0.035 | 0.034 ± 0.038 | -0.0615 ± 0.0021 | -0.124 ± 0.015 | -0.168 ± 0.059 | -0.168 ± 0.03 | -0.009 ± 0.042 | -0.0455 ± 0.0078 | -0.276 ± 0.062 | -0.011 ± 0.011 | -0.0025 ± 0.021 | -0.013 ± 0.0028 | -0.01 ± 0.0028 | -0.0145 ± 0.037 | -0.0125 ± 0.037 | -0.01 ± 0.03 | 0.0315 ± 0.039
SAg:CD69 | -0.015 ± 0.018 | 0.0185 ± 0.0092 | 0.0045 ± 0.023 | -0.0285 ± 0.018 | -0.025 ± 0.02 | -0.054 ± 0.02 | -0.0885 ± 0.03 | -0.0865 ± 0.011 | -0.0095 ± 0.1 | -0.0275 ± 0.066 | -0.162 ± 0.061 | -0.0395 ± 0.0021 | -0.0205 ± 0.00071 | -0.0515 ± 0.046 | 0.027 ± 0.076 | 0.0345 ± 0.066 | 0.045 ± 0.086 | -0.035 | -0.0335 ± 0.015
SAg:CXCL8/IL-8 | 0.006 ± 0.033 | -0.0065 ± 0.00071 | 0.0275 ± 0.052 | -0.021 ± 0.0028 | -0.0245 ± 0.039 | -0.0475 ± 0.039 | -0.097 ± 0.075 | -0.137 ± 0.087 | -0.0225 ± 0.069 | -0.061 ± 0.072 | -0.209 ± 0.005 | 0.027 ± 0.035 | 0.0095 ± 0.064 | 0.019 ± 0.079 | 0.007 ± 0.0085 | 0.005 ± 0.017 | 0.01 ± 0.034 | -0.0165 ± 0.029 | 0.0095 ± 0.036
SAg:CXCL9/MIG | -0.0105 ± 0.00071 | 0.0005 ± 0.013 | 0.008 ± 0.023 | 0.0005 ± 0.0064 | 0.0095 ± 0.00071 | -0.0065 ± 0.0035 | -0.0125 ± 0.0035 | -0.005 ± 0.0099 | -0.0095 ± 0.005 | 0.0095 ± 0.0035 | 0.015 ± 0.0071 | 0.0015 ± 0.0064 | 0.008 ± 0.0042 | 0.0035 ± 0.00071 | -0.0025 ± 0.00071 | -0.0005 ± 0.0092 | 0.011 ± 0.0028 | 0.005 ± 0.017 | -0.004 ± 0.013
SAg:PBMC Cytotoxicity | -0.005 ± 0.0042 | 0.0025 ± 0.013 | 0.035 ± 0.058 | 0.006 ± 0.0028 | -0.013 ± 0.054 | 0.003 ± 0.037 | -0.05 ± 0.024 | -0.0395 ± 0.019 | -0.023 ± 0.034 | 0.008 ± 0.016 | -0.002 ± 0.033 | 0.004 ± 0.0042 | -0.0015 ± 0.0092 | 0.008 ± 0.027 | 0.046 ± 0.038 | -0.007 ± 0.024 | 0.019 ± 0.0028 | 0.006 ± 0.018 | 0.015 ± 0.013
SAg:Proliferation | -0.0155 ± 0.011 | -0.0635 ± 0.016 | 0.025 ± 0.055 | 0.0125 ± 0.059 | -0.001 ± 0.034 | 0.0035 ± 0.0078 | -0.0855 ± 0.005 | -0.023 ± 0.0099 | -0.0355 ± 0.074 | -0.0455 ± 0.00071 | -0.126 ± 0.016 | 0.007 ± 0.051 | -0.03 ± 0.044 | 0.0375 ± 0.053 | -0.0095 ± 0.0021 | 0 ± 0.018 | -0.009 ± 0.0014 | 0.0075 ± 0.056 | 0.0035 ± 0.0092
SAg:SRB | -0.0075 ± 0.0021 | -0.009 ± 0.0014 | 0.001 ± 0.0085 | 0.0015 ± 0.0092 | 0.0105 ± 0.0092 | 0.0005 ± 0.005 | 0.005 ± 0.016 | 0.003 ± 0.025 | -0.008 ± 0.025 | -0.0175 ± 0.021 | -0.045 ± 0.021 | -0.0035 ± 0.0078 | 0.006 ± 0.0042 | 0.003 ± 0.016 | -0.0145 ± 0.0078 | -0.023 ± 0.0099 | -0.017 ± 0.021 | -0.01 ± 0.0085 | -0.002 ± 0.0099
